# Laboratory results: patent USRE36744E, “Nasal administration of benzodiazepine hypnotics” (Ribogene, Inc., priority 1994, dated 2000)
# Several values for one entry are separate records, joined by “and”; a condition that tells them apart may be missing. Equal values may be shown once.
# Experiments:
# [1] = Comparative oral versus nasal pharmacokinetics of triazolam in beagle dogs (plasma, GC assay); conditions: for Cmax / half-life / Tmax: dog, plasma
# Protocol: In two comparative studies separated in time by over one week; four healthy male, 2-3 year old beagle dogs received oral and nasal doses of triazolam. They were fasted overnight before each study and food was withheld until the end of the experiment. They were restrained in a dog sling during the studies while blood (3 ml) was withdrawn from each dog through a cannula inserted into the cephalic vein.
# Oral Administration Studies: Two 0.5 mg triazolam tablets were given to each dog with 50 ml of water. Blood samples were taken from the cephalic vein at 0 min before administration and 15, 30, 45, 60, 120, 180, 240, 300, 360 and 420 min after administration. The plasma samples were stored frozen until gas chromotographic assay for triazolam.
# Nasal Administration Studies: Thirty milligrams of triazolam powder was dissolved in 5 ml of PEG 400 warmed at 55°-60° C. After the solution was cooled to room temperature, an equal volume of 1% methocel J5MS (Dow Chemical Company, Midland, Mich.) solution was mixed with the triazolam solution. Air bubbles generated during mixing were removed by centrifugation. The final concentration of triazolam in the solvent mixture was assayed by an HPLC method. An Altex C18, 4.6×150 mm column was used. The mobile phase contained 60% of 0.05 M KH2 PO4 (pH=6.0, T. J. Baker) and 40% acetonitrile (Fisher Scientific). Flow rate of mobile phase was 1 ml/min. The wavelength used was 221 nm.
# Using a metered dose inhaler, triazolam solution was sprayed into both nostrils of the dogs. The dose administered was determined by weighting the bottle containing the triazolam solution before and after spraying. […] Blood sampling times were the same as in the oral study. The plasma samples were frozen until GC assay for triazolam.
# GC Assay: To extract triazolam, 0.5 ml of plasma, 50 μl of internal standard (55 ng/ml clonazepam in methanol) and 3 ml of hexane/methylene chloride (4:3) were vortexed together for 15 seconds and centrifuged for 4 minutes. The bottom aqueous layer was frozen by dry ice/acetone and the upper organic layer was transferred to another tube containing 1 ml of distilled water. The mixture was vortexed for 15 seconds and centrifuged for 4 minutes. Two ml of the upper organic layer was then pipetted into another tube and evaporated to dryness in an vortex-evaporator. […] of toluene was used for reconstitution.
# The amount of triazolam in 3 ml of extract plasma was assayed by an HP model 5830A GC-EC. The glass column used was a 6'×1/4" 2 mm on column w/o liner 6" coil (Anspec) with 3% OV-17 […] and detector were 275°, 310° and 350° C., respectively. The flow rate for argon/methane (95:5) gas 42 ml/min.
# [2] = Comparative oral versus nasal pharmacokinetics of flurazepam in dogs (plasma, GC assay); assay type: in vivo, beagle dogs
# Protocol: The efficacy of oral versus nasal administration was examined using the methodology of Example 2.
# Oral Administration Studies: Fifteen mg of flurazepam HCl solution was given to each dog with 50 ml of water. […] The plasma samples were stored frozen until GC assay for flurazepam.
# Nasal Administration Studies: One hundred and twenty milligrams of flurazepam HCl powder was dissolved in 4 ml of distilled water. […] Air bubbles generated during mixing were eliminated by centrifugation. The pH of the solution was 1.82.
# Flurazepam solution was sprayed into both nostrils of the dogs. The dose given to the dogs was 14.5, 12.4, 12.1 and 12.5 mg as flurazepam HCl. Blood sampling times were same as in the oral study. The plasma samples were frozen until GC assay for flurazepam.
# Five ml of hexane was then added and the mixture was vortexed together for one min. and centrifuged for 4 minutes. Four ml of the upper organic layer was then pipetted. Fifty μl of hexane/isoamyl alcohol was used for reconstitution.
# Flurazepam in plasma was assayed by a Hewlett Packard model 5830A GC-EC. […] The temperatures for column, injector port and detector were 250°, 310° and 310° C., respectively. The flow rate for argon/methane (95:5) gas was 33 ml/min.
# Wistar rats = test: Oral versus nasal hypnotic efficacy in rats (duration of sleeping time, loss and reappearance of the righting reflex); assay type: in vivo
# Protocol: A variety of hypnotics including chloral hydrate, sodium pentobarbital and flurazepam were administered to Wistar rats to compare the efficacy of oral and nasal administration.
# Oral Administration Studies: The subjects were fasted for approximately 18 hours; water was available ab libitum. Aqueous solutions of chloral hydrate obtained from Sigma Chemical Co., Ltd. and sodium pentobarbital were separately administered to groups of the subject rats using a constant dose volume of […]. Different dosage levels were obtained by varying the aqueous concentrations of therapeutic drug to identify an effective amount of hypnotic.
# The animals were then placed in a constant temperature environment of 32° C. The duration of sleeping time (measured by the loss and reappearance of the righting reflex) was recorded for each animal. The results within each group were then averaged.
# Nasal Administration Studies: The methodology of the oral studies was repeated with substitution of nasal administration of aqueous solutions through a fine catheter inserted into the nostril. The therapeutic drug was dosed at a constant volume of 50 μl which would deliver an amount of the hypnotic which would be orally effective.
# [3] = Comparative oral versus nasal pharmacokinetics of midazolam in dogs (plasma, GC assay); assay type: in vivo, beagle dogs; conditions: for half-life / Tmax / Cmax: dog, plasma
# Protocol: Air bubbles generated during mixing were removed by centrifugation.
# The dose given to each dog was 7.85, 7.89, 7.22, 5.61 mg free base.
# GC Assay--for extraction, 0.5 ml of plasma, 100 μl of internal standard (100 ng/ml flurazepam in methanol) and 0.5 ml of 2N sodium hydroxide were vortexed for 5 seconds. Five ml of hexane was then added and the mixture was vortexed for one min. and centrifuges for 4 minutes. […] Fifty μl of hexane/isoamyl alcohol (80:20) was used for reconstitution.
# The temperatures for column, injector port and detector were 250°, 310° and 310° C., respectively. The flow rate for argon/methane (95:5) gas was 33 ml/min.
# [4] = dogs, nasal vs oral, dose-normalized
# [5] = nasal spray, 12.1-14.5 mg as HCl, individual dog
# [6] = nasal spray, 5.61-7.89 mg free base, individual dog
# [7] = oral, 5 mg free base equivalent, individual dog
smiles,measurement,setting,value
Cc1nnc2n1-c1ccc(Cl)cc1C(c1ccccc1Cl)=NC2 [triazolam],Cmax,"[1]; CMAX NASAL (MEAN), nasal spray, 0.9343-1.532 mg, mean of four dogs, ng/ml",27.6 ng/mL
same,Cmax,"[1]; CMAX NASAL, nasal spray, 0.9343-1.532 mg, individual dog, ng/ml",27.2 ng/mL
same,half-life,"[1]; T1/2 NASAL (MEAN), nasal spray, 0.9343-1.532 mg, mean of four dogs",57.3 min
same,half-life,"[1]; T1/2 NASAL, nasal spray, 0.9343-1.532 mg, individual dog",62.7 min
same,Tmax,"[1]; TMAX NASAL (MEAN), nasal spray, 0.9343-1.532 mg, mean of four dogs, (min)",18.8 min
same,Tmax,"[1]; TMAX NASAL, nasal spray, 0.9343-1.532 mg, individual dog, (min)",15 min
same,Tmax,"[1]; Time of peak mean plasma concentration, nasal, dogs, mean",~18.8 min
same,Cmax,"[1]; po, 1 mg, CMAX PO (MEAN), two 0.5 mg tablets, mean of four dogs, ng/ml",7 ng/mL
same,Cmax,"[1]; po, 1 mg, CMAX PO, two 0.5 mg tablets, individual dog, ng/ml",7.6 ng/mL
same,half-life,"[1]; po, 1 mg, T1/2 PO (MEAN), two 0.5 mg tablets, mean of four dogs",67.5 min
same,Tmax,"[1]; po, 1 mg, TMAX PO (MEAN), two 0.5 mg tablets, mean of four dogs, (min)",48.8 min
same,Tmax,"[1]; po, 1 mg, TMAX PO, two 0.5 mg tablets, individual dog, (min)",45 min
same,Tmax,"[1]; po, 1 mg, Time of peak mean plasma concentration, dogs, mean",~48.8 min
same,Nasal absorption,"[1]; dogs, nasal",significant nasal absorption
same,Mean AUC after nasal administration larger than that of oral route,"[1]; dogs, nasal vs oral",2.4 fold
same,Mean half-life in both routes of administration,"[1]; dogs, nasal vs oral",about the same
same,Plasma levels after nasal administration compared with oral,"[1]; dogs, nasal vs oral, dose-corrected, FIG. 1",consistently higher
same,Variability of oral plasma concentration-time curve compared with nasal,"[1]; dogs, oral vs nasal, FIG. 1, attributed to gastric emptying of the tablets",more variability
same,TMAX NASAL,"[1]; nasal spray, 0.9343-1.532 mg, individual dog, (min)",30.0
same,CMAX NASAL,"[1]; nasal spray, 0.9343-1.532 mg, individual dog, ng/ml",31.20 and 25.20 and 26.60
same,TMAX PO,"[1]; oral, two 0.5 mg tablets, individual dog, (min)",60.0 and 30.0
same,CMAX PO,"[1]; oral, two 0.5 mg tablets, individual dog, ng/ml",6.10 and 5.50 and 8.70
CCN(CC)CCN1C(=O)CN=C(c2ccccc2F)c2cc(Cl)ccc21 [flurazepam],Tmax,"[2]; dog, plasma, nasal spray, 12.1-14.5 mg as HCl, individual dog, read-out: TMAX NASAL (converted)",15 min
same,Cmax,"[2]; dog, plasma, nasal spray, 12.1-14.5 mg as HCl, mean of four dogs, read-out: CMAX NASAL (MEAN)",73.3 ng/mL
same,half-life,"[2]; dog, plasma, nasal spray, 12.1-14.5 mg as HCl, mean of four dogs, read-out: T1/2 NASAL (MEAN)",168 min
same,Tmax,"[2]; dog, plasma, nasal spray, 12.1-14.5 mg as HCl, mean of four dogs, read-out: TMAX NASAL (MEAN) (converted)",15 min
same,Cmax,"[2]; dog, plasma, po, 15 mg, oral, 15 mg flurazepam HCl, mean of four dogs, head marked *, read-out: CMAX PO (MEAN)",4.97 ng/mL
same,Tmax,"[2]; dog, plasma, po, 15 mg, oral, 15 mg flurazepam HCl, mean of four dogs, read-out: TMAX PO (MEAN) (converted)",26.3 min
same,Tmax after nasal administration relative to oral route,"[2]; dogs, nasal vs oral",half that of oral route
same,Plasma levels after nasal administration compared with oral,"[2]; dogs, nasal vs oral, dose-corrected, FIG. 3",consistently higher
same,Mean increase in AUC after nasal administration,[2]; [4],51 fold
same,Cmax after oral administration lower than that of nasal route,"[2]; dogs, oral vs nasal",15 times
same,AUC NASAL,"[2]; nasal spray, 12.1-14.5 mg as HCl, dose-normalized, individual dog",922.3 ngmin/ml-mg and 384.9 ngmin/ml-mg and 287.4 ngmin/ml-mg and 314.9 ngmin/ml-mg
same,AUC NASAL (MEAN),"[2]; nasal spray, 12.1-14.5 mg as HCl, dose-normalized, mean of four dogs",477.4 ngmin/ml-mg
same,CMAX NASAL,[2]; [5],161.5 ng/mL and 41.1 ng/mL and 31.5 ng/mL and 59.0 ng/mL
same,T1/2 NASAL,[2]; [5],214.7 min and 190.8 min and 163.3 min and 102.6 min
same,AUC PO,"[2]; oral, 15 mg flurazepam HCl, dose-normalized, estimated up to last data point, individual dog",8.60 ngmin/ml-mg and 19.30 ngmin/ml-mg and 4.81 ngmin/ml-mg and 20.00 ngmin/ml-mg
same,AUC PO (MEAN),"[2]; oral, 15 mg flurazepam HCl, dose-normalized, estimated up to last data point, mean of four dogs",13.20 ngmin/ml-mg
same,TMAX PO,"[2]; oral, 15 mg flurazepam HCl, individual dog",45.0 min and 30.0 min
same,Hypnotic efficacy by oral administration,Wistar rats,the rats proved resistant
Cc1ncc2n1-c1ccc(Cl)cc1C(c1ccccc1F)=NC2 [midazolam],half-life,"[3]; nasal spray, 5.61-7.89 mg free base, individual dog, read-out: T1/2 NASAL",36.1 min
same,Tmax,"[3]; nasal spray, 5.61-7.89 mg free base, individual dog, read-out: TMAX NASAL (converted)",15 min
same,Cmax,"[3]; nasal spray, 5.61-7.89 mg free base, mean of four dogs, read-out: CMAX NASAL (MEAN)",101 ng/mL
same,half-life,"[3]; nasal spray, 5.61-7.89 mg free base, mean of four dogs, read-out: T1/2 NASAL (MEAN)",33.3 min
same,Tmax,"[3]; nasal spray, 5.61-7.89 mg free base, mean of four dogs, read-out: TMAX NASAL (MEAN) (converted)",15 min
same,Cmax,"[3]; po, 5 mg, oral, 5 mg free base equivalent, mean of four dogs, head marked *, read-out: CMAX PO (MEAN)",24.5 ng/mL
same,half-life,"[3]; po, 5 mg, oral, 5 mg free base equivalent, mean of four dogs, read-out: T1/2 PO (MEAN)",33.2 min
same,Tmax,"[3]; po, 5 mg, oral, 5 mg free base equivalent, mean of four dogs, read-out: TMAX PO (MEAN) (converted)",30 min
same,Mean half-life in both routes of administration,"[3]; dogs, nasal vs oral",about the same
same,Tmax after nasal administration earlier than after oral administration,"[3]; dogs, nasal vs oral",2 fold
same,Plasma levels after nasal administration compared with oral,"[3]; dogs, nasal vs oral, dose-corrected, FIG. 2",consistently higher
same,Mean increase in AUC after nasal administration,[3]; [4],2.5 fold
same,Cmax after oral administration lower than that of nasal route,"[3]; dogs, oral vs nasal",4 times
same,AUC NASAL,"[3]; nasal spray, 5.61-7.89 mg free base, dose-normalized, individual dog",842.9 ngmin/ml-mg and 520.8 ngmin/ml-mg and 338.5 ngmin/ml-mg and 650.8 ngmin/ml-mg
same,AUC NASAL (MEAN),"[3]; nasal spray, 5.61-7.89 mg free base, dose-normalized, mean of four dogs",588.3 ngmin/ml-mg
same,CMAX NASAL,[3]; [6],159.0 ng/mL and 111.2 ng/mL and 47.1 ng/mL and 87.9 ng/mL
same,T1/2 NASAL,[3]; [6],26.8 min and 36.5 min and 33.8 min
same,AUC PO,"[3]; oral, 5 mg free base equivalent, dose-normalized, individual dog",235.6 ngmin/ml-mg and 242.0 ngmin/ml-mg and 157.8 ngmin/ml-mg and 333.2 ngmin/ml-mg
same,AUC PO (MEAN),"[3]; oral, 5 mg free base equivalent, dose-normalized, mean of four dogs",242.1 ngmin/ml-mg
same,T1/2 PO,[3]; [7],43.5 min and 50.6 min and 19.4 min and 19.3 min
same,TMAX PO,[3]; [7],15.0 min and 45.0 min and 30.0 min
